Measurements: patent publication US10766940B2, “Brain penetrant amylin receptor based peptides for Alzheimer's disease” (The Governors of the University of Alberta, priority 2016, dated 2020)
Residues, ends and D or L forms follow the SMILES beside them. No end group written: not given here.

How the values were obtained:
[1] = system: h-Amylin depression of hippocampal LTP; experiment: Hippocampal slice electrophysiology, long-term potentiation (LTP); design: species or system mouse; settings: for reversal of h-Amylin reduction in LTP: 250 nM peptide perfused 5 min prior to 50 nM h-Amylin; for effect of peptide alone on LTP: 250 nM, mouse hippocampal slice
Procedure: Brains were quickly removed from mice following decapitation, placed in a cold artificial cerebral spinal fluid (aCSF) on a vibratome chamber, and transverse sections cut through the hippocampus. The aCSF contained (in millimolar 124 NaCl, 3 KCl, 2.4 CaCl2, 2 MgCl2, 1.25 NaH2PO4, 26 NaHCO3, and 10 D-glucose and was equilibrated with 95% 02 and 5% CO2. Hippocampal slices (400-μm thick) were maintained in aCSF-filled holding chamber at room temperature for at least 1 h and individually transferred to the submerged glass bottom recording chamber, which was constantly perfused with aCSF (2 ml/min) at 30° C. Field excitatory postsynaptic potential (fEPSP) was recorded with a metallic (Pt/Ir) electrode (FHC, Bowdoin, Me.) from the stratum radiatum layer of Cornu ammonis 1 region of the hippocampus (CA1) area, and the Schaffer collateral afferents were stimulated with 100-μs test pulses via a bipolar cluster electrode (FHC). For long-term potentiation (LTP) experiments, the stimulus strength was set to elicit 40-50% of the maximum fEPSP amplitude and test pulses were delivered to Schaffer collaterals once every 30 s. LTP was induced by 3-theta-burst stimulation (3-TBS) protocol (each burst consisted of four pulses at 100 Hz with a 200-ms interburst interval). Before 3-TBS or drug application, the responses were monitored for at least 10 min to ensure a stable baseline of fEPSP.
Soluble oligomeric Aβ1-42, Fragments R5, R10, R11 and h-Amylin were used. Aβ1-42 was purchased from rPeptide, and h-Amylin were purchased from American Peptide. All drugs and chemicals were applied directly to the slice via bath perfusion, which allowed for a complete exchange of the perfusate in less than a minute and a half.

[2] = molecular target: T1, AMY3 receptor (HEK293-AMY3 cells) (Homo sapiens, UniProt O60896+P30988); experiment: Flow cytometry binding and uptake of Cy5 labeled peptides in AMY3-HEK cells; assay type: cell-based; settings: for flow cytometry binding to HEK293-AMY3 cells: 10 μM
T1 construct: expressed in transfected cells; AMY3-293 / AMY3-HEK)
T1 sequence (P30988 25-474): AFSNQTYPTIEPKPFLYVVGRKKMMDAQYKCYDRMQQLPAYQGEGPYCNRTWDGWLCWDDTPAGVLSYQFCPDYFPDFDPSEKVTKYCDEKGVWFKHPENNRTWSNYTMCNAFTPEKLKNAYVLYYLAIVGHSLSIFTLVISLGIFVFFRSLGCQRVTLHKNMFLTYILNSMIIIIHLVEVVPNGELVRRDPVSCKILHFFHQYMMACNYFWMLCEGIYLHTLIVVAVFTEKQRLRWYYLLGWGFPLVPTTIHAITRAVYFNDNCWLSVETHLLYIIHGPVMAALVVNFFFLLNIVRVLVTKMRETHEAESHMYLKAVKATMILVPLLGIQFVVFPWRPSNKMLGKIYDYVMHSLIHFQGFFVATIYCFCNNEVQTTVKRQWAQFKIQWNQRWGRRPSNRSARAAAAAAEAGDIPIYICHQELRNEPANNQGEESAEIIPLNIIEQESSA
T1 sequence (O60896 24-148 partner): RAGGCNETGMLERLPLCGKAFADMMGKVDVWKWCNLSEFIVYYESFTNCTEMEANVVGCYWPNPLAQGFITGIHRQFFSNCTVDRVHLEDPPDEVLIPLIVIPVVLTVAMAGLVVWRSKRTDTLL
Procedure: d) For flow cytometry studies, AMY3-293 cells were used to determine cell binding and uptake and binding of Cy5-AC253, and Cy5-cAC253 peptides. Cell were plated at a density of 1.5×10^5 cells/well and cultured overnight in 12-well plates at 37° C. Cy5 labelled peptides (5 μM) were added and incubated for 1 hour at 37° C. in serum free media. The culture media was discarded, and cell monolayers were washed with PBS containing 2 mM EDTA and 0.5% BSA adjusted to pH 7.4 at 37° C. Cells were washed again with cold buffer and incubated with 0.25% trypsin to remove cell surface-associated fluorophores. Cells were dispersed in FACS solution (10% FBS in PBS) and analyzed using a FACSCanto II flow cytometer (BD Biosciences, USA) selecting a detection window between 720 and 840 nm. Fluorescence histograms and dot plots were generated using the data were processed with FLOWJO software (Tree Star, Inc, USA). At least 10,000 gated events per sample were analyzed. The experiment was repeated with different peptide concentration ranging from 0.5-10 μM, and mean fluorescence intensity of peptides was extrapolated. To further study the cell uptake mechanism, cells were preincubated with cytochalasin D (cytoD, […]) for 30 minutes, and the experiment was repeated as above. To determine the energy dependent mechanism, cell uptake experiment was undertaken at 4° C., and for the competition experiment, cells was pre-incubated with amylin (30 μM) for 30 minutes, and the experiment was repeated.

[3] = system: human fetal neurons (HFNs); experiment: Aβ1-42 cytotoxicity (MTT, live/dead) in human fetal neurons; assay type: cell-based; settings: for block of Aβ1-42 triggered cell death, human fetal neuronal cells (MTT): Aβ1-42 20 μM
Procedure: (§1) b) To investigate the antagonistic activity of peptides against Aβ cytotoxicity in vitro, HFNs and N2a cells were used. Cells were seeded to 5000 cells/well in a 96-well plate in MEM-10% FBS and DMEM/OptiMEM-5% FBS for overnight. […] At the end of treatment, 20 μl of 5 mg/ml methylthiazolyldiphenyl-tetrazolium bromide (MTT) was added to each well, and incubated at 37° C. for 3 hours. Medium was removed, 100 μl of MTT solvent (isopropanol with 4 mM HCl) added to each well, and the plates were incubated for 30 minutes at room temperature on a rotating shaker. Plates were analyzed on a microplate reader at a 562-nm wavelength. The Live/Dead assay kit was purchased from Invitrogen and assay followed the production instruction. The assayed cells were fixed with 4% paraformaldehyde in PBS and photo imaged with Axio Zeiss fluorescent microscopy. The dead cells were further counted using ImageJ software.
(§2) f) To investigate the antagonistic activity of peptide fragments against Aβ cytotoxicity in vitro, (human fetal neurons) HFNs, human neuroblastoma, SK-N-SH cells and N2a mouse neuroblastoma cells were used. Cells were seeded to 5000 cells/well in a 96-well plate in MEM-10% FBS and DMEM/OptiMEM-5% FBS for overnight. Cells in culture media were preincubated for 8 h with or without AC253 or fragments R5, R14, R11, and followed by treatment with Aβ1-42 for 24 h. At the end of treatment, 20 μl of 5 mg/ml methylthiazolyldiphenyl-tetrazolium bromide (MTT) was added to each well, and incubated at 37° C. for 3 h. Medium was removed, 100 μl of MTT solvent (isopropanol with 4 mM HCl) added to each well, and the plates were incubated for 30 min at room temperature on a rotating shaker. Plates were analyzed on a microplate reader at a 562-nm wavelength.

[4] = system: N2a mouse neuroblastoma cells; experiment: Aβ1-42 cytotoxicity (MTT) in N2a cells; assay type: cell-based; settings: for block of Aβ1-42 triggered cell death, N2a (MTT): Aβ1-42 20 μM
Procedure: as §1, §2

| Compound | reversal of h-Amylin reduction in LTP [1] | effect of peptide alone on LTP [1] | flow cytometry binding to HEK293-AMY3 cells ([2]; 37° C., 60 min) | block of Aβ1-42 triggered cell death, human fetal neuronal cells (MTT) [3] | block of Aβ1-42 triggered cell death, N2a (MTT) [4] | mean fluorescence intensity at 4° C. ([2]; 4° C.) | mean fluorescence intensity, binding and uptake ([2]; Cy5 labeled peptide 5 μM, 60 min, 37° C.) | mean fluorescence intensity after pre-incubation with hAmylin ([2]; hAmylin (30 μM) pre-incubation 30 minutes) | mean fluorescence intensity in the presence of cytoD ([2]; preincubation with cytochalasin D) | attenuation of Aβ1-42 induced cell death, HFNs ([3]; Aβ1-42 10 μM, peptide 10 μM pre-applied, MTT and live-dead assays) | attenuation of Aβ1-42 induced cell death, N2a ([4]; Aβ1-42 10 μM, peptide 10 μM pre-applied, MTT) |
| --- | --- | --- | --- | --- | --- | --- | --- | --- | --- | --- | --- |
| LGRLSQELHRLQTY (LGRLSQELHRLQTY-NH2) [R14] | significantly reversed | did not impair LTP | selective and significant specific binding | block the effect of Aβ1-42 | block the effect of Aβ1-42 |  |  |  |  |  |  |
| CC(C)C[C@H](NC(=O)[C@H](CCC(=O)O)NC(=O)[C@H](CCC(N)=O)NC(=O)[C@@H](N)CO)C(=O)N[C@@H](Cc1c[nH]cn1)C(=O)N[C@@H](CCCNC(=N)N)C(=O)N[C@@H](CC(C)C)C(=O)N[C@@H](CCC(N)=O)C(=O)N[C@H](C(=O)N[C@@H](Cc1ccc(O)cc1)C(=O)N1CCC[C@H]1C(=O)N[C@@H](CCCNC(=N)N)C(N)=O)[C@@H](C)O [R5] (H-SQELHRLQTYPR-NH2; N-terminus assumed) | significantly reversed | did not impair LTP | selective and significant specific binding | block the effect of Aβ1-42 | block the effect of Aβ1-42 |  |  |  |  |  |  |
| CC(C)C[C@H](NC(=O)[C@H](CCCNC(=N)N)NC(=O)CNC(=O)[C@@H](N)CC(C)C)C(=O)N[C@@H](CO)C(=O)N[C@@H](CCC(N)=O)C(=O)N[C@@H](CCC(=O)O)C(=O)N[C@@H](CC(C)C)C(=O)N[C@@H](Cc1c[nH]cn1)C(=O)N[C@@H](CCCNC(=N)N)C(=O)N[C@@H](CC(C)C)C(=O)N[C@@H](CCC(N)=O)C(=O)N[C@H](C(=O)N[C@@H](Cc1ccc(O)cc1)C(=O)N1CCC[C@H]1C(=O)N[C@@H](CCCNC(=N)N)C(=O)N[C@H](C(=O)N[C@@H](CC(N)=O)C(=O)N[C@H](C(=O)NCC(=O)N[C@@H](CO)C(=O)N[C@@H](CC(N)=O)C(=O)N[C@H](C(=O)N[C@@H](Cc1ccc(O)cc1)C(N)=O)[C@@H](C)O)[C@@H](C)O)[C@@H](C)O)[C@@H](C)O [AC253] |  |  |  |  |  | 400±75 | 1200 | 500±100 | 450±50 | attenuated | attenuated |
